Data: US5723462A, “Certain fused pyrrolecarboxamides a new class of GABA brain receptor ligands” (Neurogen Corporation, priority 1996, dated 1998)

Target: GABAa receptor
Assay: GABAa receptor binding assay ([3H]-Flumazenil, RO15-1788 displacement, rat cortical tissue)
Conditions: 0.5 nM 3H-RO15-1788, 30 min at 4° C.
Method: The pharmaceutical utility of compounds of this invention are indicated by the following assay for GABAa receptor binding activity.
Assays are carried out as described in Thomas and Tallman (J. Bio. Chem. 156: 9838-9842, J. Neurosci. 3: 433-440, 1983). Rat cortical tissue is dissected and homogenized in 25 volumes (w/v) of 0.05M Tris HCl buffer (pH 7.4 at 4° C.). The tissue homogenate is centrifuged in the cold (4° ) at 20,000×g for 20'. The supernatant is decanted and the pellet is rehomogenized in the same volume of buffer and again centrifuged at 20,000×g. The supernatant is decanted and the pellet is frozen at -20° C. overnight. The pellet is then thawed and rehomogenized in 25 volume (original wt/vol) of buffer and the procedure is carried out twice. The pellet is finally resuspended in 50 volumes (w/vol of 0.05M Tris HCl buffer (pH 7.4 at […]).
Incubations contain […] of tissue homogenate, […] of radioligand 0.5 nM (^3 H-RO15-1788 [^3 H-Flumazenil] specific activity 80 Ci/mmol), drug or blocker and buffer to a total volume of […]. Incubations are carried for 30 min at 4° C. then are rapidly filtered through GFB filters to separate free and bound ligand. Filters are washed twice with fresh 0.05M Tris HCl buffer (pH 7.4 at 4° C.) and counted in a liquid scintillation counter. 1.0 mM diazepam is added to some tubes to determine nonspecific binding. Data are collected in triplicate determinations, averaged and % inhibition of total specific binding is calculated. Total Specific Binding=Total-Nonspecific. In some cases, the amounts of unlabeled drugs is varied and total displacement curves of binding are carried out. Data are converted to IC50 or Ki.

SMILES	Ki [µM]
O=C(Nc1ccccn1)c1c[nH]c2c1C(=O)CCC2 [Compound 4, N-(2-Pyridyl)-4-oxo-4,5,6,7-tetrahydro-1H-indole-3-carboxamide]	0.003
O=C(Nc1nccs1)c1c[nH]c2c1C(=O)CCCC2 [Compound 5, N-(2-Thiazolyl)-4-oxo-1,4,5,6,7,8-hexahydro-cyclohepta[b]pyrrole-3-carboxamide]	0.002
Cc1cnc(NC(=O)c2c[nH]c3c2C(=O)CCC3)s1 [Compound 9, N-(5-Methyl-2-thiazolyl)-4-oxo-4,5,6,7-tetrahydro-1H-indole-3-carboxamide]	0.009
O=C(Nc1ccsc1)c1c[nH]c2c1C(=O)CCC2 [Compound 2, N-(3-thienyl)-4-oxo-4,5,6,7-tetrahydro-1H-indole-3-carboxamide]	0.003
O=C(Nc1ccc2ccc(Cl)nc2n1)c1c[nH]c2c1C(=O)CCC2 [Compound 10, N-(2-Chloro-1,8-napthyridin-7-yl)-4-oxo-4,5,6,7-tetrahydro-1H-indole-3-carboxamide]	0.083
O=C(Nc1cccnc1)c1c[nH]c2c1C(=O)CCCC2 [Compound 6, N-(3-Pyridyl)-4-oxo-1,4,5,6,7,8-hexahydro-cyclohepta[b]pyrrole-3-carboxamide]	0.025

Continued, values first:

Ki [µM]	SMILES
0.011	COc1ccc(NC(=O)c2c[nH]c3c2C(=O)CCC3)cn1 [Compound 1]
0.015	CC1(C)CCc2[nH]cc(C(=O)Nc3ccsc3)c2C1=O [Compound 7, N-(3-Thienyl)-4-oxo-5,5-dimethyl-4,5,6,7-tetrahydro-1H-indole-3-carboxamide]
0.064	O=C(Nc1ccc2nccnc2c1)c1c[nH]c2c1C(=O)CCC2 [Compound 13, N-(6-Quinoxalinyl)-4-oxo-4,5,6,7-tetrahydro-1H-indole-3-carboxamide]
0.05	O=C(Nc1ccc2ccccc2n1)c1c[nH]c2c1C(=O)CCC2 [Compound 12, N-(2-Quinolinyl)-4-oxo-4,5,6,7-tetrahydro-1H-indole-3-carboxamide]
0.003	Cc1cnc2nc(NC(=O)c3c[nH]c4c3C(=O)CCC4)ccc2c1 [Compound 11]
0.066	COc1ccc2ccc(NC(=O)c3c[nH]c4c3C(=O)CCC4)nc2n1 [Compound 3, N-(2-methoxy-1,8-napthyridin-7-yl)-4-oxo-4,5,6,7-tetrahydro-1H-indole-3-carboxamide]
0.002	CC1(C)CCc2[nH]cc(C(=O)Nc3nccs3)c2C1=O [Compound 8, N-(2-Thiazolyl)-4-oxo-5,5-dimethyl-4,5,6,7-tetrahydro-1H-indole-3-carboxamide]

System: GABA receptor
Assay: not given
Conditions: Tallman et al., 1978; cited from earlier work

SMILES	blockade of the enhancement of benzodiazepine binding by GABA agonists
CN1CCc2cc3c(cc2C1C1OC(=O)c2c1ccc1c2OCO1)OCO3 (single isomer, unassigned; (-)) [(-) bicuculline]	much less active
CN1CCc2cc3c(cc2C1C1OC(=O)c2c1ccc1c2OCO1)OCO3 (single isomer, unassigned; (+)) [(+) bicuculline]	blocked
